Assay results published in patent US8563714B2, “Bridged spiro [2.4] heptane derivatives as ALX receptor and/or FPRL2 agonists” (Actelion Pharmaceuticals Ltd., priority 2009, dated 2013).

Columns and labels:
human ALX receptor = biological target: T1, human ALX receptor (Homo sapiens, UniProt P25090); test: Intracellular calcium measurements (FLIPR), agonistic activity in HEK293-hALXR-Gα16 cells; assay type: cell-based; conditions: Fluo-4 calcium FLIPR, normalized to WKYMVm 10 nM
T1 construct: expressed in transfected cells; host or cells: HEK293 (HEK293-hALXR-Gα16)
T1 sequence (P25090 1-351): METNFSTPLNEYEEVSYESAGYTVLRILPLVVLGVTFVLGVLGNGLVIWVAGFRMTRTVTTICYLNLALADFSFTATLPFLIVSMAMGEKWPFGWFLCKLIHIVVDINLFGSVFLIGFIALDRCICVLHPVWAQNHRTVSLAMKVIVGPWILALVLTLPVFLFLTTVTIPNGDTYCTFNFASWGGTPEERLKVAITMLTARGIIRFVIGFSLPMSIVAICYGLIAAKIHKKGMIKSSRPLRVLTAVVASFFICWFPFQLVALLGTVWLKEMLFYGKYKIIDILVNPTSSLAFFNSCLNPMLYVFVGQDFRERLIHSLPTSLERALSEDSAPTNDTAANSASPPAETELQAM
In short: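 Agonist-induced calcium flux was recorded by FLIPR (488/540 nm) in HEK293-hALXR-Gα16 cells pre-loaded with Fluo-4 AM (1 μM, 60 min, 37°C). Peak signal above baseline, after subtracting buffer addition, was expressed relative to WKYMVm at 10 nM final.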

human FPRL2 = biological target: T2, human FPRL2 (Homo sapiens, UniProt P25089); test: Intracellular calcium measurements (FLIPR), agonistic activity in HEK293-hFPRL2-Gα16 cells; assay type: cell-based; conditions: Fluo-4 calcium FLIPR, normalized to GLY14-Humanin 100 nM
T2 construct: expressed in transfected cells; host or cells: HEK293 (HEK293-hFPRL2-Gα16)
T2 sequence (P25089 1-353): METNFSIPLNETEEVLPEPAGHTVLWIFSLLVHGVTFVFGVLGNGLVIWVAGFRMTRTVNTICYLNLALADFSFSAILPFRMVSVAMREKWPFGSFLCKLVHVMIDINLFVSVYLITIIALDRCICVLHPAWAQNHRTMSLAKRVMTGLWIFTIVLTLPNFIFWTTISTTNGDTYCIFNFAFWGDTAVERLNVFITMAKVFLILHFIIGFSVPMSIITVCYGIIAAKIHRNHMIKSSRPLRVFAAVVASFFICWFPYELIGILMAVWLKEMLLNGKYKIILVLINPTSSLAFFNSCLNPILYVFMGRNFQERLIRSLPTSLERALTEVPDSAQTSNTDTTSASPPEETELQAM
In short: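 Peak values after baseline subtraction are expressed relative to 100 nM Gly14-Humanin; compounds diluted in assay buffer from 10 mM DMSO stocks.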

EC50 (human ALX receptor) [nM] | EC50 (human FPRL2) [nM] | Structure (SMILES)
0.13 | 1150 | NCC1CCC(NC(=O)C2C(C(=O)Nc3ccc(Br)cc3)C3C=CC2C32CC2)CC1 (single isomer, unassigned) [Example 420]
22 | 1480 | COC(=O)CCNC(=O)[C@H]1[C@H](C(=O)Nc2ccc(Br)cc2)[C@@H]2C=C[C@H]1C21CC1 (racemic) [Example 60, (5R*)—N^5-(4-Bromophenyl)-(6R*)—N^6-(2-(methoxy-carbonyl)-ethyl)-(4S*,7R*)-[4,7-ethenylene-spiro[2.4]heptane]-5,6-dicarboxamide]
168 | 139 | O=C(NCCCCN1CCCC1)[C@H]1[C@H](C(=O)Nc2cnc(Br)c(F)c2)[C@@H]2C=C[C@H]1C21CC1 [Example 338, (5R)—N^5-(2-Bromo-3-fluoro-pyridin-5-yl)-(6R)—N^6-(4-pyrrolidino-butyl)-(4S,7R)-[4,7-ethenylene-spiro[2.4]heptane]-5,6-dicarboxamide]
15 | > 25000 | NC(=O)CCNC(=O)[C@H]1[C@H](C(=O)Nc2ncc(Br)s2)[C@@H]2CC[C@H]1C21CC1 [Example 239, (5R)—N^5-(5-Bromo-thiazol-2-yl)-(6R)—N^6-(3-amino-3-oxopropyl)-(4S,7R)-[4,7-ethylene-spiro[2.4]heptane]-5,6-dicarboxamide]
19 | 68 | Cc1nc(CCNC(=O)[C@H]2[C@H](C(=O)Nc3ccc(Br)cc3)[C@@H]3C=C[C@H]2C32CC2)[nH]c1C (relative stereo) [Example 64, (5R*)—N^5-(4-Bromophenyl)-(6R*)—N^6-(2-(4,5-dimethyl-1H-imidazol-2-yl)-ethyl)-(4S*,7R*)-[4,7-ethenylene-spiro[2.4]heptane]-5,6-dicarboxamide]
117 | 15 | O=C(NCCCCN1CCCC1)[C@H]1[C@H](C(=O)NCc2ccc(Br)c(F)c2)[C@@H]2C=C[C@H]1C21CC1 [Example 321, (5R)—N^5-(4-Bromo-3-fluorophenyl-methyl)-(6R)—N^6-(4-pyrrolidino-butyl)-(4S,7R)-[4,7-ethenylene-spiro[2.4]heptane]-5,6-dicarboxamide]
136 | 4810 | O=C(CCc1cccnc1)NC[C@H]1[C@H](C(=O)Nc2ccc(Br)cc2)[C@@H]2C=C[C@H]1C21CC1 (racemic) [Example 174, (5R*)—N^5-(4-Bromo-phenyl)-(6R*)-6-[(3-pyridin-3-yl-propionylamino)-methyl]-(4S*,7R*)-[4,7-ethenylene-spiro[2.4]heptane]-5-carboxamide]
1.5 | 5250 | O=C(NCC1CCCO1)C1C(C(=O)Nc2ccc(Br)cc2)C2CCC1C21CC1 (mixture of isomers) [Example 104, (5R*)—N^5-(4-Bromophenyl)-(6R*)—N^6-(tetrahydrofuran-2-yl-methyl)-(4S*,7R*)-[4,7-ethylene-spiro[2.4]heptane]-5,6-dicarboxamide]
1.4 | 7650 | COCC1CCCN1CCCCNC(=O)[C@H]1[C@H](C(=O)Nc2ccc(Br)cc2)[C@@H]2C=C[C@H]1C21CC1 (stereo partly drawn) [Example 400, (5R)—N^5-(4-Bromophenyl)-(6R)—N^6-(4-(2-(methoxymethyl)pyrrolidin-1-yl)butyl)-(4S,7R)-[4,7-ethenylene-spiro[2.4]heptane]-5,6-dicarboxamide]
492 | 67 | O=C(NCCCCN1CCCC1)[C@H]1[C@H](C(=O)Nc2ccc3ncoc3c2)[C@@H]2C=C[C@H]1C21CC1 (racemic) [Example 254, (5R*)—N^5-(Benzo[d]oxazol-6-yl)-(6R*)—N^6-(4-pyrrolidin-1-yl-butyl)-(4S*,7R*)-[4,7-ethenylene-spiro[2.4]heptane]-5,6-dicarboxamide]
9890 | 91 | O=C(NCCCCN1CCCC1)[C@H]1[C@H](C(=O)Nc2nc(-c3ccccc3)ns2)[C@@H]2C=C[C@H]1C21CC1 (racemic) [Example 153, (5R*)—N^5-(3-Phenyl-[1,2,4]thiadiazol-5-yl)-(6R*)—N^6-(4-pyrrolidin-1-yl-butyl)-(4S*,7R*)-[4,7-ethenylene-spiro[2.4]heptane]-5,6-dicarboxamide]
6360 | 52 | O=C(NCCCCN1CCCC1)C1C(C(=O)NCCc2ccc(F)cc2)C2C=CC1C21CC1 (stereo not drawn) [Example 382, (5R*)—N^5-(2-(4-Fluorophenyl)ethyl)-(6R*)—N^6-(4-pyrrolidino-butyl)-(4S*,7R*)-[4,7-ethenylene-spiro[2.4]heptane]-5,6-dicarboxamide]
147 | 6940 | CN1CCC(NC(=O)[C@H]2[C@H](C(=O)Nc3ccc(Br)cc3)[C@@H]3C=C[C@H]2C32CC2)CC1 (racemic) [Example 86, (5R*)—N^5-(4-Bromophenyl)-(6R*)—N^6—(N-methyl-piperidin-4-yl)-(4S*,7R*)-[4,7-ethenylene-spiro[2.4]heptane]-5,6-dicarboxamide]
6.2 | 1490 | NCC1CCN(C(=O)C2C(C(=O)Nc3ncc(Br)s3)C3CCC2C32CC2)CC1 [Example 336, (5R)—N^5-(5-Bromo-thiazol-2-yl)-(6R)—N^6,N^6-(3-(aminomethyl)pentane-1,5-diyl)-(4S,7R)-[4,7-ethylene-spiro[2.4]heptane]-5,6-dicarboxamide]
> 25000 | 136 | O=C(NCCCCN1CCCC1)[C@H]1[C@H](C(=O)NCCn2ccc3ccccc32)[C@@H]2C=C[C@H]1C21CC1 (racemic) [Example 157, (5R*)—N^5-(2-(1H-Indol-1-yl)-ethyl)-(6R*)—N^6-(4-pyrrolidin-1-yl-butyl)-(4S*,7R*)-[4,7-ethenylene-spiro[2.4]heptane]-5,6-dicarboxamide]
3.3 | > 25000 | O=C(N[C@H]1CC[C@H](O)CC1)[C@H]1[C@H](C(=O)Nc2ccc(Br)cc2)[C@@H]2C=C[C@H]1C21CC1 (racemic) [Example 23, (5R*)—N^5-(4-Bromophenyl)-(6R*)—N^6-(4-hydroxy-cyclohexyl)-(4S*,7R*)-[4,7-ethenylene-spiro[2.4]heptane]-5,6-dicarboxamide]
384 | 1820 | CC(=O)c1csc(CNC(=O)[C@H]2[C@H](C(=O)NCC3CCNCC3)[C@H]3C=C[C@@H]2C32CC2)n1 (racemic) [Example 300, (5R*)—N^5-(4-Acetyl-thiazol-2-yl-methyl)-(6R*)—N^6-(piperidin-4-yl-methyl)-(4S*,7R*)-[4,7-ethenylene-spiro[2.4]heptane]-5,6-dicarboxamide]
13 | 1700 | NCC1CCC(NC(=O)C2C(C(=O)Nc3ccc(Br)cc3)C3C=CC2C32CC2)CC1 (single isomer, unassigned) [Example 421]
4.1 | 1480 | O=C(NCCCn1ccnc1)[C@H]1[C@H](C(=O)Nc2ccc(Br)cc2)[C@@H]2CC[C@H]1C21CC1 (racemic) [Example 108, (5R*)—N^5-(4-Bromophenyl)-(6R*)—N^6-(3-(1H-imidazol-1-yl)-propyl)-(4S*,7R*)-[4,7-ethylene-spiro[2.4]heptane]-5,6-dicarboxamide]
80 | 5480 | CCN(CC)CCCNC(=O)[C@H]1[C@H](C(=O)Nc2ccc(Br)cc2)[C@@H]2C=C[C@H]1C21CC1 (racemic) [Example 78, (5R*)—N^5-(4-Bromophenyl)-(6R*)—N^6-(3-diethyl-amino-propyl)-(4S*,7R*)-[4,7-ethenylene-spiro[2.4]heptane]-5,6-dicarboxamide]
8810 | 6.6 | O=C(NCCCCN1CCCC1)[C@H]1[C@H](C(=O)NCCc2ccc(Br)cc2)[C@@H]2C=C[C@H]1C21CC1 (racemic) [Example 379, (5R*)—N^5-(2-(4-Bromophenyl)ethyl)-(6R*)—N^6-(4-pyrrolidino-butyl)-(4S*,7R*)-[4,7-ethenylene-spiro[2.4]heptane]-5,6-dicarboxamide]

Structure (SMILES) | EC50 (human ALX receptor) [nM] | EC50 (human FPRL2) [nM]
CC(C)(C)OC(=O)NCCCCCNC(=O)[C@H]1[C@H](C(=O)Nc2ccc(Br)cc2)[C@@H]2C=C[C@H]1C21CC1 (racemic) [Example 68, (5R*)—N^5-(4-Bromophenyl)-(6R*)—N^6-(5-tert-butoxycarbonyl-amino-pentyl)-(4S*,7R*)-[4,7-ethenylene-spiro[2.4]heptane]-5,6-dicarboxamide] | 27 | 2170
